Measurements as given in PubChem BioAssay AID200 (DTP/NCI, 2004).
Several values for one entry are separate records, joined by “and”; a condition that tells them apart may be missing. Equal values may be shown once. Toxic doses and inconclusive results are not listed. How the source made its calls: active means survival T/C of 150% or more; inactive means T/C below 125% in these data.

Test system: B6C3F1 mice, B16 melanoma ip, median survival T/C
Experiment: NCI In Vivo Anticancer Drug Screen. Data for tumor model B16 Melanoma (intraperitoneal) in B6C3F1 mice
Details: endpoint: median survival time, higher = longer survival
Method: The antitumor activity of compounds was measured in mice bearing transplantable tumors. Survival or tumor size were measured and the results are expressed as the measurement made in the treated group (T) divided by the measurement made in the vehicle treated control group (C). The tumor model used in this assay is B16 Melanoma (intraperitoneal) in B6C3F1 mice

[1] = dose: 25.0 mg/kg/injection, schedule: Q01DX009 (ip), vehicle: saline with Tween-80
[2] = dose: 50.0 mg/kg/injection, schedule: Q01DX009 (ip), vehicle: saline with Tween-80
[3] = dose: 100.0 mg/kg/injection, schedule: Q01DX009 (ip), vehicle: saline with Tween-80
[4] = dose: 200.0 mg/kg/injection, schedule: Q01DX009 (ip), vehicle: saline with Tween-80
[5] = dose: 50.0 mg/kg/injection, schedule: Q01DX009 (ip), vehicle: saline
[6] = dose: 100.0 mg/kg/injection, schedule: Q01DX009 (ip), vehicle: saline
[7] = dose: 200.0 mg/kg/injection, schedule: Q01DX009 (ip), vehicle: saline
[8] = dose: 400.0 mg/kg/injection, schedule: Q01DX009 (ip), vehicle: saline
[9] = dose: 1.5 mg/kg/injection, schedule: Q01DX009 (ip), vehicle: Klucel (hydroxypropylcellulose) (HPC)
[10] = dose: 3.0 mg/kg/injection, schedule: Q01DX009 (ip), vehicle: Klucel (hydroxypropylcellulose) (HPC)
[11] = dose: 3.13 mg/kg/injection, schedule: Q01DX009 (ip), vehicle: Klucel (hydroxypropylcellulose) (HPC)
[12] = dose: 6.25 mg/kg/injection, schedule: Q01DX009 (ip), vehicle: Klucel (hydroxypropylcellulose) (HPC)
[13] = dose: 12.5 mg/kg/injection, schedule: Q01DX009 (ip), vehicle: Klucel (hydroxypropylcellulose) (HPC)
[14] = dose: 25.0 mg/kg/injection, schedule: Q01DX009 (ip), vehicle: Klucel (hydroxypropylcellulose) (HPC)
[15] = dose: 12.5 mg/kg/injection, schedule: Q01DX009 (ip), vehicle: saline
[16] = dose: 50.0 mg/kg/injection, schedule: Q01DX009 (ip), vehicle: Klucel (hydroxypropylcellulose) (HPC)

Measured: T/C

O=C(O)COc1ccc(-c2ccc(Br)cc2)cc1
inactive: [1] 95 % of control | [2] 98 % of control | [3] 87 % of control | [4] 96 % of control | dose: 400.0 mg/kg/injection, schedule: Q01DX009 (ip), vehicle: saline with Tween-80 94 % of control

C[C@H](N)C(=O)N[C@@H]1[C@H]2C(=C(O)C[C@@H](O)[C@@H]2O)C(=O)O[C@@H]1C
inactive: [5] 101 % of control | dose: 75.0 mg/kg/injection, schedule: Q01DX009 (ip), vehicle: saline with Tween-80 111 % of control | [6] 98 % of control | dose: 150.0 mg/kg/injection, schedule: Q01DX009 (ip), vehicle: saline with Tween-80 120 % of control | [7] 111 % of control | dose: 300.0 mg/kg/injection, schedule: Q01DX009 (ip), vehicle: saline with Tween-80 117 % of control | [8] 103 % of control | dose: 1200.0 mg/kg/injection, schedule: Q01DX009 (ip), vehicle: saline with Tween-80 113 % of control

C[C@]12CC[C@H](O)CC1=CC[C@@H]1[C@@H]2CC[C@]2(C)C(=O)CC[C@@H]12
inactive: [1] 100 % of control | [2] 97 % of control | [3] 101 % of control | [4] 92 % of control

NC(CCl)=NCC12CC3CC(CC(C3)C1)C2
inactive: [9] 92 % of control | [10] 104 % of control | [11] 92 % of control | dose: 6.0 mg/kg/injection, schedule: Q01DX009 (ip), vehicle: Klucel (hydroxypropylcellulose) (HPC) 110 % of control and 101 % of control | [12] 101 % of control | dose: 12.0 mg/kg/injection, schedule: Q01DX009 (ip), vehicle: Klucel (hydroxypropylcellulose) (HPC) 114 % of control and 104 % of control | [13] 101 % of control | [14] 112 % of control

COC1C(C)OC(OC2CC(C)(O)Cc3cc4c(c(O)c32)C(=O)c2c(O)cc3c(c2C4=O)OC2OC3(C)C(O)C(N(C)C)C2O)C(OC)C1(C)OC (centres undefined)
active: dose: 5.0 mg/kg/injection, schedule: Q01DX009 (ip), vehicle: other 157 % of control and 175 % of control
inactive: dose: 0.16 mg/kg/injection, schedule: Q01DX009 (ip), vehicle: other 92 % of control | dose: 0.31 mg/kg/injection, schedule: Q01DX009 (ip), vehicle: other 95 % of control and 102 % of control | dose: 0.62 mg/kg/injection, schedule: Q01DX009 (ip), vehicle: other 113 % of control | dose: 0.63 mg/kg/injection, schedule: Q01DX009 (ip), vehicle: other 116 % of control and 124 % of control and 97 % of control

Nc1nc(F)nc2c1ncn2C1OC(COP(=O)(O)O)C(O)C1O (centres undefined)
inactive: dose: 12.5 mg/kg/injection, schedule: Q01DX009 (ip), vehicle: suspension in saline 90 % of control | dose: 25.0 mg/kg/injection, schedule: Q01DX009 (ip), vehicle: suspension in saline 97 % of control | dose: 50.0 mg/kg/injection, schedule: Q01DX009 (ip), vehicle: suspension in saline 93 % of control | dose: 100.0 mg/kg/injection, schedule: Q01DX009 (ip), vehicle: suspension in saline 105 % of control

CC(C)CC(NC(=O)C(O)C(N)Cc1ccccc1)C(=O)O (centres undefined)
inactive: dose: 10.0 micrograms/kg/injection, schedule: Q01DX005 (ip), vehicle: saline 99 % of control | dose: 10.0 micrograms/kg/injection, schedule: Q01DX005 (oral), vehicle: saline 100 % of control | dose: 10.0 micrograms/mouse/injection, schedule: Q01DX006 (ip), vehicle: saline 101 % of control | dose: 20.0 micrograms/mouse/injection, schedule: Q01DX006 (oral), vehicle: saline 95 % of control | dose: 100.0 micrograms/kg/injection, schedule: Q01DX005 (ip), vehicle: saline 96 % of control | dose: 100.0 micrograms/kg/injection, schedule: Q01DX005 (oral), vehicle: saline 98 % of control | dose: 100.0 micrograms/mouse/injection, schedule: Q01DX006 (ip), vehicle: saline 108 % of control | dose: 200.0 micrograms/mouse/injection, schedule: Q01DX006 (oral), vehicle: saline 102 % of control

Nc1nc(/C=C(/O)c2ccccc2)c2ncn(C3OC(CO)C(O)C3O)c2n1 (centres undefined)
inactive: dose: 12.5 mg/kg/injection, schedule: Q01DX009 (ip), vehicle: distilled water + Tween-80 103 % of control | [15] 102 % of control | dose: 25.0 mg/kg/injection, schedule: Q01DX009 (ip), vehicle: distilled water + Tween-80 101 % of control | dose: 25.0 mg/kg/injection, schedule: Q01DX009 (ip), vehicle: saline 101 % of control | dose: 50.0 mg/kg/injection, schedule: Q01DX009 (ip), vehicle: distilled water + Tween-80 95 % of control | [5] 111 % of control | dose: 100.0 mg/kg/injection, schedule: Q01DX009 (ip), vehicle: distilled water + Tween-80 101 % of control | [6] 101 % of control | [7] 103 % of control

COC1CC2C=C(C)/C=C/C=C/C(=O)NC(c3ccccc3)C/C=C/CCC(O)CC(=O)C2=C1O (centres undefined)
inactive: [9] 108 % of control | [10] 110 % of control and 119 % of control and 123 % of control | [11] 104 % of control | [12] 109 % of control

CC(C)CC(=O)NC(C(=O)NC(C(=O)NC(CC(C)C)C(O)CC(=O)NC(C)C(=O)NC(CC(C)C)C(O)CC(=O)O)C(C)C)C(C)C (centres undefined)
inactive: [12] 102 % of control | [13] 93 % of control | [14] 96 % of control | [16] 88 % of control

O=C(CCl)NC(Cc1ccccc1)C(=O)O (centres undefined)
inactive: [2] 88 % of control | [3] 90 % of control | [4] 90 % of control

Nc1nc(=S)c2ncn(C3OC(CO)CC3O)c2[nH]1 (centres undefined)
inactive: dose: 5.0 mg/kg/injection, schedule: Q01DX009 (ip), vehicle: saline 110 % of control | dose: 10.0 mg/kg/injection, schedule: Q01DX009 (ip), vehicle: saline 122 % of control | dose: 40.0 mg/kg/injection, schedule: Q01DX009 (ip), vehicle: saline 94 % of control

C[C@H]1CCC/C=C/[C@@H]2C[C@H](O)C[C@H]2[C@H](O)/C=C/C(=O)O1
inactive: [13] 89 % of control | [14] 91 % of control | [16] 91 % of control

O=c1cc(-c2ccccc2)nc(N[N+](=O)[O-])[nH]1
inactive: dose: 11.0 mg/kg/injection, schedule: Q01DX009 (ip), vehicle: Klucel (hydroxypropylcellulose) (HPC) 91 % of control | dose: 22.0 mg/kg/injection, schedule: Q01DX009 (ip), vehicle: Klucel (hydroxypropylcellulose) (HPC) 100 % of control | dose: 44.0 mg/kg/injection, schedule: Q01DX009 (ip), vehicle: Klucel (hydroxypropylcellulose) (HPC) 105 % of control | dose: 88.0 mg/kg/injection, schedule: Q01DX009 (ip), vehicle: Klucel (hydroxypropylcellulose) (HPC) 88 % of control

Cc1c2ccccc2c(C)c2c1cc(C(=O)O)c1ccccc12
inactive: dose: 25.0 mg/kg/injection, schedule: Q01DX009 (ip), vehicle: sodium bicarbonate 99 % of control | dose: 50.0 mg/kg/injection, schedule: Q01DX009 (ip), vehicle: sodium bicarbonate 105 % of control | dose: 100.0 mg/kg/injection, schedule: Q01DX009 (ip), vehicle: sodium bicarbonate 108 % of control | dose: 200.0 mg/kg/injection, schedule: Q01DX009 (ip), vehicle: sodium bicarbonate 109 % of control | dose: 400.0 mg/kg/injection, schedule: Q01DX009 (ip), vehicle: sodium bicarbonate 101 % of control

OC1CCCC2CCC[N-]C12.OC1CCCC2CCC[N-]C12.[Mn+2] (centres undefined)
inactive: [14] 109 % of control | [16] 102 % of control

CC(NC(=O)OCc1ccccc1)C(=O)NC(Cc1c[nH]c2ccccc12)C(=O)O (centres undefined)
inactive: dose: 100.0 mg/kg/injection, schedule: Q01DX009 (ip), vehicle: Klucel (hydroxypropylcellulose) (HPC) 95 % of control | dose: 200.0 mg/kg/injection, schedule: Q01DX009 (ip), vehicle: Klucel (hydroxypropylcellulose) (HPC) 100 % of control | dose: 400.0 mg/kg/injection, schedule: Q01DX009 (ip), vehicle: Klucel (hydroxypropylcellulose) (HPC) 89 % of control

CN(C)CCCOc1nc2c(c(=O)n(C)c(=O)n2C)n1C (tested in a mixture with another compound)
inactive: [12] 90 % of control | [13] 111 % of control | [14] 102 % of control | [16] 107 % of control

CN1c2ccc3ccccc3c2Sc2ccc3ccccc3c21
inactive: [6] 100 % of control | [7] 100 % of control | [8] 118 % of control

COC12C(COC(=O)NCCO)C3=C(C(=O)C(C)=C(N)C3=O)N1CC1NC12 (centres undefined)
active: [13] 205 % of control
inactive: [11] 110 % of control | [14] 121 % of control

CCN=C=NCCCN(C)C
inactive: dose: 6.25 mg/kg/injection, schedule: Q01DX009 (ip), vehicle: saline 109 % of control | [15] 114 % of control
